The values that follow come from patent US20210330578A1, “TOPICAL COSMETIC COMPOSITIONS” (Mary Kay Inc., priority 2020, published 2021).

This test has as its system filaggrin. Description: Filaggrin protein expression in keratinocytes (PROTEINSIMPLE SIMON western blotting bioassay). The format is cell-based, human. Particulars: 1% tested, 24 to 36 hours. On the procedure: Changes in the production of filaggrin in keratinocytes due to each of the active ingredients, any one of the combination of ingredients, or compositions having said combinations disclosed in the specification can be measured. Filaggrin is the precursor to Natural Moisturizing Factor (NMF) in the skin. Increased NMF increases the moisture content of the skin.
Filaggrin production in treated and non-treated keratinocytes was determined using the PROTEINSIMPLE® SIMON™ western blotting bioassay that employs an antibody specific for filaggrin to quantitatively detect filaggrin concentration in keratinocyte cell lysates. The treated group of keratinocytes was treated with 1% of calcium or an extract of Laminaria saccharina, marine plankton, Opuntia ficus-indica, Imperata cylindrical, or Verbena officinalis (1%).
For each sample, normal human epidermal keratinocytes (NHEK) were grown in EPI-200—Mattek EPILIFE™ growth media with calcium from Life Technologies (M-EP-500-CA). […] The protein concentrations of the samples were determined and used to normalize the samples. The lysates were stored at −80° C. until used in the quantification assay. […] The chemiluminescent development was stopped at a specific time and the intensity of the chemiluminescent signal was measured (reported as Area Under Curve, AUC in Table 3 below) and compared to controls.
(A western blot detects proteins with antibodies after separation by electrophoresis.)

For the compound `[Ca+2]` [Calcium], under “NHEK, compared to controls”, the “% Ctrl (increase in filaggrin protein expression)” value was determined as 15.60%. Further, the “AUC (intensity of the chemiluminescent signal, filaggrin)” value (normal human epidermal keratinocytes (NHEK), control AUC 70848) was determined as 81899.
